Columns and labels:
Format in all cases: in vivo
CHENOPODIUM ALBUM, L. = assay: Preemergence herbicidal evaluation, CHEAL (Lambsquarters, Common); conditions: rated four to five weeks after treatment
Summary of the method: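 Rated 0-9 by visual comparison with control (stand, vigor, malformation, size, chlorosis, overall appearance) four to five weeks after preemergence soil spray. Dose equivalent to about 0.125 to 0.50 kg per hectare, applied in aqueous acetone to freshly seeded cups kept in greenhouse.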

GALIUM APARINE [1] = assay: Preemergence herbicidal evaluation, GALAP (Galium); conditions: rated four to five weeks after treatment
Excerpt: (§1) Results of herbicide evaluation are expressed on a rating scale (0-9). The scale is based upon a visual observation of plant stand, vigor, malformation, size, chlorosis and overall plant appearance as compared with a control.
(§2) The preemergence herbicidal activity of the test compounds of the present invention is exemplified by the following tests in which the seeds of a variety of monocotyledonous and dicotyledonous plants are separately mixed with potting soil and planted on top of approximately one inch of soil in separate pint cups. […] The treated cups are then placed on greenhouse benches, watered and cared for in accordance with conventional greenhouse procedures. From four to five weeks after treatment, the tests are terminated and each cup is examined and rated according to the rating system provided in Example 40.
(§3) The compounds evaluated are reported by compound number given in Example 40.

[…], PRESL. = Preemergence weed control under flooded paddy conditions, MOOVA (Monochoria); conditions: preemergence, 3-4 weeks after treatment
Summary of the method: (§4)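 In undrained pots of silt loam flooded to 1.5-3 cm, compounds are pipetted into the water before emergence at the equivalent of about 0.5, 0.25, 0.125 and 0.063 kg/ha. Plants are scored 0-9 for stand, vigor, malformation, size and chlorosis at test end (3-4 weeks).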

[2] = tested on: ORYZA SATIVA, L. TEBONNET; assay: Rice tolerance to post-transplant applications under flooded paddy conditions, ORYSAT (Rice, Tebonnet); conditions: post-transplant rice, 3-4 weeks after treatment
Summary of the method: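 Greenhouse pots of silt loam, each with two transplanted ten-day-old seedlings, are held under 1.5 to 3 cm of standing water. Three days later the compound is applied to the flooded surface at about 0.5, 0.25, 0.125 or 0.063 kg/ha. Damage is scored visually 0-9 after 3-4 weeks.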

[3] = tested on: ECHINOCHLOA ORYZOIDES (ARD.)FRITSCH; assay: Preemergence weed control under flooded paddy conditions, ECHORC (Watergrass (Calif.)); conditions: preemergence, 3-4 weeks after treatment
Summary of the method: as §4

[4] = tested on: ABUTILON THEOPHRASTI, MEDIC.; assay: Postemergence herbicidal evaluation, ABUTH (Velvetleaf); conditions: rated four to five weeks after treatment, averaged
Summary of the method: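 This postemergence herbicide test used two-week-old velvetleaf seedlings grown in jiffy flats. Each compound was sprayed at 40 psi as a dispersion in 50/50 acetone/water with 0.5% TWEEN®20 surfactant. Plants then received routine greenhouse care. After four to five weeks, injury was scored visually on a 0-9 scale against a control, and replicate tests were averaged.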

[5] = tested on: ECHINOCHLOA CRUS-GALLI, (L) BEAU; assay: Preemergence herbicidal evaluation, ECHCG (Barnyardgrass); conditions: rated four to five weeks after treatment
Excerpt: as §1, §2, §3

ZEA MAYS L. = assay: Preemergence herbicidal evaluation, ZEAMX (Corn, Field); conditions: rated four to five weeks after treatment
Excerpt: as §1, §2, §3

SAGITTARIA PYGMAEA, L. = assay: Preemergence weed control under flooded paddy conditions, SAGPY (Arrowhead (Pygmaea)); conditions: preemergence, 3-4 weeks after treatment
Summary of the method: as §4

[6] = tested on: CYPERUS SEROTINUS, ROTTB.; assay: Preemergence weed control under flooded paddy conditions, CYPSE (Flatsedge); conditions: preemergence, 3-4 weeks after treatment
Summary of the method: as §4

CASSIA OBTUSIFOLIA, L. = assay: Preemergence herbicidal evaluation, CASOB (Sicklepod); conditions: Rate 0.500 kg/ha, rated four to five weeks after treatment
Excerpt: as §1, §2, §3

[7] = tested on: GLYCINE MAX(L) MERR. CV. WILLIAMS; assay: Postemergence herbicidal evaluation, GLXMAW (Soybean, Williams); conditions: crop, rated four to five weeks after treatment, averaged
Summary of the method: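 Herbicidal injury to Williams soybean was assessed after a postemergence spray of two-week-old seedlings grown in jiffy flats. Compounds were dispersed in an acetone/water (50/50) mixture with 0.5% TWEEN®20 surfactant and applied at 40 psi. After four to five weeks in the greenhouse, stand, vigor, malformation, size and chlorosis were compared against a control on a 0-9 scale, and results from replicate tests were averaged.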

GALIUM APARINE [8] = assay: Postemergence herbicidal evaluation, GALAP (Galium); conditions: rated four to five weeks after treatment, averaged
Summary of the method: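 In this postemergence greenhouse test, two-week-old Galium aparine seedlings grown in jiffy flats received a 40 psi spray of compound in acetone/water (50/50) with 0.5% TWEEN®20 surfactant. After four to five weeks, stand, vigor, malformation, size, chlorosis and overall appearance were compared with untreated controls on a 0-9 scale, averaging multiple tests.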

CYPERUS IRIA = assay: Preemergence weed control under flooded paddy conditions, CYPIR (Rice Flatsedge); conditions: 0.500 kg/ha, preemergence, 3-4 weeks after treatment
Summary of the method: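 This preemergence test mimicked flooded paddy conditions: rice flatsedge propagules were sown in the upper 0.5 cm of silt loam in undrained 32 oz. containers (10.5 cm diameter), with water held 1.5 to 3 cm over the soil. After normal greenhouse care, plants were scored 0-9 for stand, vigor, malformation, size, chlorosis and appearance relative to controls.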

[9] = tested on: SETARIA VIRIDIS, (L) BEAU; assay: Postemergence herbicidal evaluation, SETVI (Foxtail, Green); conditions: rated four to five weeks after treatment, averaged
Summary of the method: (§5)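 Spray: acetone/water 50/50 + 0.5% TWEEN 20; rate ~0.125–0.500 kg/ha; nozzle 40 psi; ~2-wk seedlings. Read: visual 0–9 rating at 4–5 wk post-treatment vs control; replicate tests averaged.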

[10] = tested on: ECHINOCHLOA CRUS-GALLI, (L) BEAU; assay: Postemergence herbicidal evaluation, ECHCG (Barnyardgrass); conditions: rated four to five weeks after treatment, averaged
Summary of the method: as §5

SMILES | GALAP herbicidal rating (GALIUM APARINE [1]; Rate 0.500 kg/ha) | Herbicidal effect rating, MOOVA ([…], PRESL.; 0.500 kg/ha) | Herbicidal effect rating, ORYSAT ([2]; 0.125 kg/ha) | Herbicidal effect rating, ORYSAT ([2]; 0.250 kg/ha) | Herbicidal effect rating, ORYSAT ([2]; 0.500 kg/ha) | Herbicidal effect rating, ECHORC ([3]; 0.500 kg/ha) | Herbicidal effect rating, SAGPY (SAGITTARIA PYGMAEA, L.; 0.063 kg/ha) | Herbicidal effect rating, SAGPY (SAGITTARIA PYGMAEA, L.; 0.125 kg/ha) | Herbicidal effect rating, SAGPY (SAGITTARIA PYGMAEA, L.; 0.250 kg/ha) | Herbicidal effect rating, SAGPY (SAGITTARIA PYGMAEA, L.; 0.500 kg/ha) | Herbicidal effect rating, ORYSAT ([2]; 0.063 kg/ha) | Herbicidal effect rating, CYPSE ([6]; 0.063 kg/ha) | Herbicidal effect rating, CYPSE ([6]; 0.125 kg/ha) | Herbicidal effect rating, CYPSE ([6]; 0.250 kg/ha) | Herbicidal effect rating, CYPSE ([6]; 0.500 kg/ha) | CASOB herbicidal rating (CASSIA OBTUSIFOLIA, L.) | further results
Cn1c(=O)n(CC(=O)OC(C)(C)C)c(=O)n(-c2cc(Oc3c(F)cc(C(F)(F)F)cc3Cl)ccc2[N+](=O)[O-])c1=O [Compound 17, Tert-butyl 3-{5-[(2-chloro-α,α,α,6-tetra-fluoro-p-tolyl)oxy]-2-nitrophenyl}tetra-hydro-5-methyl-2,4,6-trioxo-s-triazine-1(2H)-acetate] | 9.0 | 9.0 | 3.0 | 3.0 | 2.0 | 9.0 | – | – | – | – | – | – | – | – | – | – | CHEAL herbicidal rating (CHENOPODIUM ALBUM, L.; Rate 0.125 kg/ha): 9.0; CHEAL herbicidal rating (CHENOPODIUM ALBUM, L.; Rate 0.250 kg/ha): 9.0; CHEAL herbicidal rating (CHENOPODIUM ALBUM, L.; Rate 0.500 kg/ha): 9.0; GALAP herbicidal rating (GALIUM APARINE [1]; Rate 0.125 kg/ha): 9.0; GALAP herbicidal rating (GALIUM APARINE [1]; Rate 0.250 kg/ha): 9.0; Herbicidal effect rating, MOOVA ([…], PRESL.; 0.125 kg/ha): 9.0; Herbicidal effect rating, MOOVA ([…], PRESL.; 0.250 kg/ha): 9.0; Herbicidal effect rating, ECHORC ([3]; 0.125 kg/ha): 9.0; Herbicidal effect rating, ECHORC ([3]; 0.250 kg/ha): 9.0; ABUTH, herbicide rating (0-9) ([4]; Rate 0.125 kg/ha): 9.0; ABUTH, herbicide rating (0-9) ([4]; Rate 0.250 kg/ha): 9.0; ABUTH, herbicide rating (0-9) ([4]; Rate 0.500 kg/ha): 9.0; ECHCG herbicidal rating ([5]; Rate 0.125 kg/ha): 0.0; ECHCG herbicidal rating ([5]; Rate 0.250 kg/ha): 0.0; ECHCG herbicidal rating ([5]; Rate 0.500 kg/ha): 0.0; ZEAMX herbicidal rating (ZEA MAYS L.; Rate 0.125 kg/ha): 0.0; ZEAMX herbicidal rating (ZEA MAYS L.; Rate 0.250 kg/ha): 0.0; ZEAMX herbicidal rating (ZEA MAYS L.; Rate 0.500 kg/ha): 0.0
COC(=O)Cn1c(=O)n(C)c(=O)n(-c2cc(Oc3ccc(F)cc3C(F)(F)F)ccc2[N+](=O)[O-])c1=O [Compound 21] | 9.0 | – | 0.0 | 0.0 | 0.5 | – | 0.0 | 0.0 | 0.0 | 0.0 | 0.0 | 0.0 | 0.0 | 0.0 | 0.0 | 7.0 | GLXMAW, herbicide rating (0-9) ([7]; Rate 0.125 kg/ha): 4.0; GLXMAW, herbicide rating (0-9) ([7]; Rate 0.250 kg/ha): 4.0; GLXMAW, herbicide rating (0-9) ([7]; Rate 0.500 kg/ha): 4.0
COC(=O)Cn1c(=O)n(C)c(=O)n(-c2cc(Oc3cccc(Cl)c3Cl)ccc2[N+](=O)[O-])c1=O [Compound 22, Methyl 3-[5-(2,3-dichlorophenoxy)-2-nitrophenyl]tetrahydro-5-methyl-2,4,6-trioxo-s-triazine-1(2H)-acetate] | 0.0 | – | 0.0 | 0.0 | 2.0 | – | 0.0 | 0.0 | 0.0 | 0.0 | 0.0 | 0.0 | 0.0 | 0.0 | 0.0 | 3.0 | –
COC(=O)Cn1c(=O)n(C)c(=O)n(-c2cc(Oc3ccc([N+](=O)[O-])cc3F)ccc2[N+](=O)[O-])c1=O [Compound 24, Methyl 3-[5-(2-fluoro-4-nitrophenoxy)-2-nitrophenyl]tetrahydro-5-methyl-2,4,6-trioxo-s-triazine-1(2H)-acetate] | 0.0 | 0.0 | – | – | 0.0 | 0.0 | – | – | – | 0.0 | – | – | – | – | 0.0 | 0.0 | GALAP, herbicide rating (0-9) (GALIUM APARINE [8]; Rate 0.125 kg/ha): 2.0; GALAP, herbicide rating (0-9) (GALIUM APARINE [8]; Rate 0.250 kg/ha): 2.0; GALAP, herbicide rating (0-9) (GALIUM APARINE [8]; Rate 0.500 kg/ha): 2.0; Herbicidal effect rating, CYPIR (CYPERUS IRIA): 0.0; SETVI, herbicide rating (0-9) ([9]; Rate 0.125 kg/ha): 0.0; SETVI, herbicide rating (0-9) ([9]; Rate 0.250 kg/ha): 0.0; SETVI, herbicide rating (0-9) ([9]; Rate 0.500 kg/ha): 0.0; ECHCG, herbicide rating (0-9) ([10]; Rate 0.125 kg/ha): 0.0; ECHCG, herbicide rating (0-9) ([10]; Rate 0.250 kg/ha): 0.0; ECHCG, herbicide rating (0-9) ([10]; Rate 0.500 kg/ha): 0.0
COC(=O)Cn1c(=O)n(C)c(=O)n(-c2cc(Oc3ccc(F)c(F)c3F)ccc2[N+](=O)[O-])c1=O [Compound 27, Methyl tetrahydro-3-methyl-5-[2-nitro-5-(2,3,4-trifluorophenoxy)phenyl]-2,4,6-trioxo-s-triazine-1(2H)-acetate] | 8.0 | – | 1.0 | 2.0 | 1.5 | – | 0.0 | 0.0 | 0.0 | 0.0 | 0.0 | 0.0 | 0.0 | 0.0 | 0.0 | 0.0 | –

Reference: EP0745595A1, “3-(3-Aryloxyphenyl)-1-(substituted methyl)-s-triazine-2,4,6-oxo or thiotrione herbicidal agents” (American Cyanamid Company, priority 1995, dated 1996)
